Reference: article PMC2997738 (2008)
Each block holds one compound with its values, some of them ahead of it.

Tests used:
[1] = test system: GdG-3 (RNA, riboswitch) GGACAUACAAUCGCGUGGAUAUGGCACGCAAGAUCCCGCCGGGCACCGUAAAUGUCCGACUAUGUCC; experiment: ITC; conditions: 100 mM KCl, 20 mM MgCl2; 50 mM K+-Hepes pH 7.5, 30 °C; apparent
[2] = test system: Wild-type G-box B. subtilis xpt–pbuX (xpt) (RNA, riboswitch) GGACAUAUAAUCGCGUGGAUAUGGCACGCAAGUUUCUACCGGGCACCGUAAAUGUCCGACUAUGUCC; experiment: ITC; conditions: 100 mM KCl, 20 mM MgCl2; 50 mM K+-Hepes pH 7.5, 30 °C; apparent

KD,rG [1]: 121 ± 8 µM
SMILES: Nc1nc2c(ncn2[C@@H]2O[C@H](CO)[C@@H](O)[C@H]2O)c(=O)[nH]1

KD,dG [2]: 12 ± 1 µM
KD,dG [1]: 39 ± 1 µM
SMILES: Nc1nc2c(ncn2[C@H]2C[C@H](O)[C@@H](CO)O2)c(=O)[nH]1

KD,G [1]: 1200 ± 700 µM
SMILES: Nc1nc2[nH]cnc2c(=O)[nH]1
